Assay results taken from paper PMC11149917, “Translational and Therapeutic Evaluation of RAS-GTP Inhibition by RMC-6236 in RAS-Driven Cancers” (Cancer Discovery, 2024).

Tested on: PRISM panel of 845 cancer cell lines
Assay: PRISM assay
Type: cell-based, human
Procedure: The PRISM cell set comprised 845 cell lines representing more than 45 lineages (see Supplementary Table S1 for cell line information), which largely overlapped with the Cancer Cell Line Encyclopedia; https://portals.broadinstitute.org/ccle). Cell lines were grown in RPMI without phenol red and supplemented with 10% or 20% FBS for adherent and suspended lines, respectively. Parental cell lines were stably infected with a unique 24-nucleotide DNA barcode via lentiviral transduction and blasticidin selection. After selection, barcoded cell lines were expanded and subjected to quality control (Mycoplasma contamination test, an SNP test for confirming cell line identity, and barcode ID confirmation). Approved cell lines were then pooled (20–25 cell lines per pool) based on doubling time similarity and frozen in assay-ready vials.
RMC-6236 was added to 384-well plates at 8-point concentration with 3-fold dilutions in triplicate. These assay-ready plates were then seeded with the thawed cell line pools. Adherent cell pools were plated at 1,250 cells per well, whereas suspension and mixed adherent/suspension pools were plated at 2,000 cells per well. Treated cells were incubated for 5 days, and then lysed. Lysate plates were collapsed together prior to barcode amplification and detection.
Each cell line's unique barcode is located in the 3′UTR of the blasticidin-resistance gene and therefore is expressed as mRNA. Total mRNA was captured using magnetic particles that recognize polyA sequences. Captured mRNA was reverse-transcribed into cDNA and then the sequence containing the unique PRISM barcode was amplified using PCR. Finally, Luminex beads that recognize the specific barcode sequences in the cell set were hybridized to the PCR products and detected using a Luminex scanner which reports the signal as a median fluorescent intensity (MFI).
• Each detection well contained 10 control barcodes in increasing abundances as spike-in controls. For each plate, we first create a reference profile by calculating the median of the log2(MFI) values across negative control wells for each of these spiked-in barcodes. • For each well, a monotonic smooth p-spline was fitted to map the spike-in control levels to the reference profile. Next, we transform the log2(MFI) for each cell barcode using the fitted spline to allow well-to-well comparisons by correcting for amplification and detection artifacts. • Next, the separability between negative and positive control treatments was assessed. In particular, we calculated the error rate of the optimum simple threshold classifier between the control samples for each cell line and plate combination. The error rate is a measure of the overlap of the two control sets and was defined as error = (FP + FN)/n, where FP is false positives, FN is false negatives, and n is the total number of controls. A threshold was set between the distributions of positive and negative control log2(MFI) values (with everything below the threshold said to be positive and above said to be negative) such that this value is minimized. Additionally, we also calculated the dynamic range of each cell line. […] Additionally, any cell line that had less than 2 passing replicates was also omitted for the sake of reproducibility. Finally, we computed viability by normalizing with respect to the median negative control for each plate.
For every gene with nonsilent mutations in at least four cell lines, we compared the AUC values between cells with and without those mutations using a t test. This analysis was carried out for (i) the full data set; (ii) excluding cell lines with nonsilent KRAS mutations; and (iii) excluding cell lines that have either KRAS or NRAS nonsilent mutations.

SMILES: CCn1c(-c2cc(N3CCN(C)CC3)cnc2[C@H](C)OC)c2c3cc(ccc31)-c1csc(n1)C[C@H](NC(=O)[C@H]1C[C@@H]1C)C(=O)N1CCC[C@H](N1)C(=O)OCC(C)(C)C2 [RMC-6236]
- RMC-6236: RevMed PRISM: AUC (22RV1_PROSTATE): 0.9065
- RMC-6236: RevMed PRISM: AUC (A427_LUNG, KRAS p.G12D): 0.4282
- RMC-6236: RevMed PRISM: AUC (A704_KIDNEY): 1
- RMC-6236: RevMed PRISM: AUC (A1207_CENTRAL_NERVOUS_SYSTEM): 1
- RMC-6236: RevMed PRISM: AUC (BICR16_UPPER_AERODIGESTIVE_TRACT): 0.548
- RMC-6236: RevMed PRISM: AUC (CAL54_KIDNEY): 1
- RMC-6236: RevMed PRISM: AUC (CAL72_BONE): 0.8456
- RMC-6236: RevMed PRISM: AUC (CAL120_BREAST): 0.7982
- RMC-6236: RevMed PRISM: AUC (CHLA15_AUTONOMIC_GANGLIA): 0.6747
- RMC-6236: RevMed PRISM: AUC (COLO678_LARGE_INTESTINE, KRAS p.G12D): 0.7109
- RMC-6236: RevMed PRISM: AUC (COLO679_SKIN): 0.8171
- RMC-6236: RevMed PRISM: AUC (CORL23_LUNG, KRAS p.G12V): 0.4445
- RMC-6236: RevMed PRISM: AUC (DETROIT562_UPPER_AERODIGESTIVE_TRACT): 0.5051
- RMC-6236: RevMed PRISM: AUC (DMS53_LUNG): 0.9861
- RMC-6236: RevMed PRISM: AUC (EBC1_LUNG): 0.478
- RMC-6236: RevMed PRISM: AUC (ECGI10_OESOPHAGUS): 0.6603
- RMC-6236: RevMed PRISM: AUC (EW8_BONE): 0.6608
- RMC-6236: RevMed PRISM: AUC (EWS502_BONE): 0.706
- RMC-6236: RevMed PRISM: AUC (FADU_UPPER_AERODIGESTIVE_TRACT): 0.6934
- RMC-6236: RevMed PRISM: AUC (G292CLONEA141B1_BONE): 0.9519
- RMC-6236: RevMed PRISM: AUC (GB2_BILIARY_TRACT): 0.6327
- RMC-6236: RevMed PRISM: AUC (H357_UPPER_AERODIGESTIVE_TRACT, HRAS p.G13S): 0.44
- RMC-6236: RevMed PRISM: AUC (HARA_LUNG): 0.583
- RMC-6236: RevMed PRISM: AUC (HCC827_LUNG): 0.8007
- RMC-6236: RevMed PRISM: AUC (HCC1195_LUNG, NRAS p.Q61L): 0.7308
- RMC-6236: RevMed PRISM: AUC (HCC1937_BREAST): 0.9056
- RMC-6236: RevMed PRISM: AUC (HCSC1_CERVIX, NRAS p.G13R): 1
- RMC-6236: RevMed PRISM: AUC (HDQP1_BREAST): 0.5485
- RMC-6236: RevMed PRISM: AUC (HEYA8_OVARY, KRAS p.G12D): 0.6142
- RMC-6236: RevMed PRISM: AUC (HT29_LARGE_INTESTINE): 0.9177
- RMC-6236: RevMed PRISM: AUC (HT115_LARGE_INTESTINE): 0.7857
- RMC-6236: RevMed PRISM: AUC (IGR39_SKIN): 0.916
- RMC-6236: RevMed PRISM: AUC (JHH6_LIVER): 0.7876
- RMC-6236: RevMed PRISM: AUC (JHOC5_OVARY): 0.7067
- RMC-6236: RevMed PRISM: AUC (KE39_STOMACH): 0.7632
- RMC-6236: RevMed PRISM: AUC (KE97_STOMACH): 0.8452
- RMC-6236: RevMed PRISM: AUC (KKU100_BILIARY_TRACT, KRAS p.G12D): 0.4482
- RMC-6236: RevMed PRISM: AUC (KKU213_BILIARY_TRACT, KRAS p.G13C): 0.6654
- RMC-6236: RevMed PRISM: AUC (KLE_ENDOMETRIUM): 0.9884
- RMC-6236: RevMed PRISM: AUC (KMS34_HAEMATOPOIETIC_AND_LYMPHOID_TISSUE): 0.7785
- RMC-6236: RevMed PRISM: AUC (KOSC2CL343_UPPER_AERODIGESTIVE_TRACT): 0.6166
- RMC-6236: RevMed PRISM: AUC (KP2_PANCREAS, KRAS p.G12R): 0.4026
- Median AUC (PRISM) (KRAS^MUT cell lines): 0.57
- RMC-6236: RevMed PRISM: AUC (KU1919_URINARY_TRACT, NRAS p.Q61R): 0.3992
- RMC-6236: RevMed PRISM: AUC (KYSE30_OESOPHAGUS, HRAS p.Q61L): 0.6346
- RMC-6236: RevMed PRISM: AUC (KYSE150_OESOPHAGUS): 0.7237
- RMC-6236: RevMed PRISM: AUC (KYSE410_OESOPHAGUS, KRAS p.G12C): 0.5271
- RMC-6236: RevMed PRISM: AUC (KYSE450_OESOPHAGUS): 0.5198
- RMC-6236: RevMed PRISM: AUC (LI7_LIVER): 0.743
- RMC-6236: RevMed PRISM: AUC (LOVO_LARGE_INTESTINE, KRAS p.G13D): 0.6638
- RMC-6236: RevMed PRISM: AUC (LOXIMVI_SKIN): 0.876
- RMC-6236: RevMed PRISM: AUC (LS411N_LARGE_INTESTINE): 1
